# Measurements taken from patent publication US8084221B2, “Method of screening for a drug candidate that increases ATP release from RBCs stimulated via the Gs or Gi pathway” (Saint Louis University, priority 2006, dated 2011).
# Entries after “also recorded” stand apart in the source; their conditions may differ.
# Key:
# human erythrocytes [1] = assay: cAMP concentration in human erythrocytes (EIA); assay type: cell-based; settings: for cAMP production / synthesis on incubation with activator: activator of Gs or Gi alone; for Mas7-induced cAMP accumulation in the presence of insulin: MAS7 10 μM, insulin pre-incubation; for cAMP accumulation in response to Gs/Gi activation or reduced O2 tension, in the presence of insulin: insulin at concentrations reported in plasma of humans with prediabetes
# Experimental: (§1) Erythrocytes (20% hct) were incubated with Mastoparan 7 (10 μM) or its vehicle in the presence or absence of 1 uM insulin. ATP release from erythrocytes was measured at 5 minute intervals using the luciferan/luciferase assay. In separate studies, erythrocytes (50% hct) were incubated with vehicle, 10 uM cilostazol, 100 μM cilostazol, […], 3 uM insulin, and/or 10 uM Mastoparan 7 for determination of cAMP concentration. At timed intervals, 4 mL of ice cold ethanol containing 1 mM HCl was added to 1 mL of RBC suspension. After centrifugation at 14,000×g at 4° C. for 10 min., the supernatant was dried under vacuum. Samples were resuspended in assay buffer and cAMP concentration was determined in duplicate by EIA.
# (§2) Protocol A: Washed erythrocytes are incubated with insulin (0.1 nM-1 μM, Humalog®), or its vehicle (saline) for 30 min [28, 29, 47, 60]. Erythrocytes are incubated with either iloprost (1 μM), isoproterenol (10 μM) (receptor-mediated activators of Gs) or mastoparan 7 (MAS7, 10 μM) (a direct activator of Gi) or their vehicle (saline). After 15 min, cAMP accumulation and ATP release will be determined.
# After 30 min, the cells were incubated with either iloprost (1 μM), isoproterenol (10 μM), MAS7 (10 μM) or exposed to reduce O2 tension and cAMP accumulation and ATP release was determined. Control experiments: Identical experiments were performed with the vehicles for the various inhibitors. […] The concentrations chosen for rolipram and sildenafil PDE are those reported to be specific for the PDEs indicated.
# Measurement of cAMP: 1 ml of erythrocyte suspension was added to 4 ml of ice cold ethanol containing 1 mM HCl and the mixture was centrifuged at 21,000×g for 10 minutes at 4° C. The supernatant was removed and stored overnight at −20° C. to precipitate remaining proteins. Samples were centrifuged a second time at 3,700×g for 10 minutes at 4° C. The supernatant was removed and dried under vacuum centrifugation. Concentrations of cAMP were determined by EIA.
# PDE4 = settings: reported in reference [54]; cited from earlier work
# [2] = test system: RBCs derived from humans having type 2 diabetes; assay: MAS7-induced ATP release by RBCs from humans with type 2 diabetes; assay type: cell-based, human; settings: type 2 diabetic RBCs, stimulation via the Gi pathway (MAS7), compared with RBCs of healthy individuals, FIG. 7
# Experimental: as §1
# (§3) Measurement of ATP: ATP was measured using the luciferin-luciferase assay. A 200 μL sample of an erythrocyte suspension was injected into a cuvette containing 100 μL of 10 mg/ml crude firefly tail extract and 100 μL of a 0.5 mg/ml solution of D-luciferin. The light emitted from the reaction of ATP with the crude firefly tail extract was measured using a luminometer designed to detect a wavelength of 565 nm. The peak light emitted was compared to an ATP standard curve generated on the day of the experiment.
# human erythrocytes [3] = assay: ATP release from human erythrocytes (luciferin-luciferase assay); assay type: cell-based; settings: for ATP release on incubation with activator: activator of Gs or Gi alone; for Mas7-induced ATP release in the presence of insulin: MAS7 10 μM, insulin 1 μM pre-incubation; for ATP release in response to Gs/Gi activation or reduced O2 tension, in the presence of insulin: insulin at concentrations reported in plasma of humans with prediabetes
# Experimental: as §1, §2
# Protocol C: To determine effects of direct activation of adenylyl cyclase and active cAMP analogs on ATP release from erythrocytes in the presence of insulin, washed erythrocytes are incubated with insulin (0.1 nM-1 μM) or its vehicle (saline). After 30 min, the cells are incubated with either the non-selective activator of adenylyl cyclase (AC) activity, forskolin (1 to 10 μM), or one of two active cAMP analogs that are resistant to degradation, SpcAMP (10 to 100 μM) or 8-bromo-cAMP (10 to 100 μM). ATP release will be measured at 5, 10 and 15 min after addition of forskolin or the active cAMP analogs. Controls: To ensure the effects of forskolin or the cAMP analogs are not due to effects of vehicle or time, identical experiments are conducted using their vehicles, N,Ndimethylformamide (DMF) or saline, respectively, in lieu of the active agent. Total intracellular ATP and free hemoglobin, a measurement of erythrocyte lysis, is determined.
# as §3
# Exposure of Erythrocytes to Reduced Oxygen Tension: Washed erythrocytes were diluted in Krebs buffer containing bicarbonate (4.7 KCl, 2.0 mM CaCl2, 140.5 mM NaCl, 1.2 mM MgSO4) and equilibrated for 30 minutes in a tonometer (15% O2, 5% CO2, balance N2) (normoxia). Erythrocytes were then exposed to hypoxia by changing the equilibrating gas to 5% O2, 5% CO2, balance N2. ATP released from the erythrocytes as well as pH and blood gas tensions were determined at 5, 10 and 15 min after exposure to the various gas tensions. In separate studies, samples were collected into acidified ethanol for cAMP measurement.
# human erythrocytes [4] = assay: Total intracellular ATP of erythrocytes; assay type: cell-based; settings: human erythrocytes pre-incubated with insulin 1 μM
# Experimental: Measurement of Total Intracellular ATP: A known number of erythrocytes was lysed in distilled water at room temperature. ATP in the lysate, diluted 8,000 fold, was measured using ATP assay and the values normalized to ATP concentration per erythrocyte.
compound,measurement,setting,value
O=C1CCc2cc(OCCCCc3nnnn3C3CCCCC3)ccc2N1 [cilostazol],iloprost-induced cAMP accumulation after cilostazol pre-treatment,human erythrocytes [1]; FIG. 11,concentration-dependent increases
same,basal cAMP levels,human erythrocytes [1]; in the presence of cilostazol,increased
same,concentrations inhibiting PDE4 activity relative to those used here,PDE4,ten-fold greater
same,MAS7-induced ATP release by diabetic RBCs treated with cilostazol,[2],normal levels of ATP
same,MAS7-induced ATP release by diabetic RBCs treated with cilostazol,[2]; listed as CILO,not significantly different from the levels released by RBCs of healthy individuals
"CC#CCC(C)[C@H](O)/C=C/[C@@H]1[C@H]2C/C(=C/CCCC(=O)O)C[C@H]2C[C@H]1O (stereo partly drawn) [iloprost, reference compound]",cAMP production / synthesis on incubation with activator,human erythrocytes [1],stimulate
same,ATP release on incubation with activator,human erythrocytes [3],stimulate
"CC(C)NCC(O)c1ccc(O)c(O)c1 (stereo not drawn) [isoproterenol, reference compound]",cAMP production / synthesis on incubation with activator,human erythrocytes [1],stimulate
same,ATP release on incubation with activator,human erythrocytes [3],stimulate
"COc1ccc(C2CNC(=O)C2)cc1OC1CCCC1 (stereo not drawn) [rolipram, reference compound]",iloprost-induced cAMP accumulation with rolipram,"human erythrocytes [1]; rolipram 30 μM, n=6",no effect
Mastoparan 7 [reference compound],cAMP production / synthesis on incubation with activator,human erythrocytes [1],increased cAMP production
same,cAMP production / synthesis on incubation with activator,human erythrocytes [1]; listed as MAS7,stimulate
same,ATP release on incubation with activator,human erythrocytes [3],ATP release
same,ATP release on incubation with activator,human erythrocytes [3]; listed as MAS7,stimulate
insulin: insulin incubated with erythrocytes; Humalog or regular human insulin in the protocols,Mas7-induced cAMP accumulation in the presence of insulin,human erythrocytes [1]; FIG. 8,greater at lower (nM) insulin concentrations; also recorded: decline; also recorded: decreases; also recorded: reduces; also recorded: inhibition
same,Mas7-induced cAMP accumulation in the presence of insulin,"human erythrocytes [1]; FIG. 8, listed as Insulin",reduces
same,"cAMP accumulation in response to Gs/Gi activation or reduced O2 tension, in the presence of insulin",human erythrocytes [1],inhibited; also recorded: limit; also recorded: decreases
same,"cAMP accumulation in response to Gs/Gi activation or reduced O2 tension, in the presence of insulin",human erythrocytes [1]; listed as Insulin,decreases
same,total ATP content,human erythrocytes [4],absence of changes
same,Mas7-induced ATP release in the presence of insulin,human erythrocytes [3]; FIG. 9,inhibit; also recorded: decline; also recorded: decreases; also recorded: reduces; also recorded: attenuated
same,Mas7-induced ATP release in the presence of insulin,"human erythrocytes [3]; FIG. 9, listed as Insulin",reduces
same,"ATP release in response to Gs/Gi activation or reduced O2 tension, in the presence of insulin",human erythrocytes [3],inhibits; also recorded: attenuates
same,"ATP release in response to Gs/Gi activation or reduced O2 tension, in the presence of insulin",human erythrocytes [3]; listed as Insulin,attenuates
same,"ATP release in response to active cAMP analogs resistant to hydrolysis by PDEs, in the presence of insulin",human erythrocytes [3]; insulin pretreatment,no effect
